Assays:
[1] = Phase I clinical trial, pharmacokinetics (serum, HPLC, 2-compartment model); format: in vivo, human patients; set-up: AUC: unit not given here
Procedure: AHVB blood serum concentrations were measured at 0, 0.33, 0.67, 1, 1.25, 1.5, 2, 4, 6, 8, 12, 24, 48, and 72 hrs after the start of each infusion. […] The serum extracts were assayed using high pressure liquid chromatography (HPLC) and were fit to a 2-compartment pharmacokinetic model for determination of pharmacokinetic parameters (see Table 5).
There appears to be no significant change in clearance observed between smaller and larger doses (p>0.2 by linear regression). […] Similarly, AUC appeared to increase linearly with dose (r^2=0.82, p<0.05) (FIG. 12).

[2] = Toxicological studies in dogs; format: in vivo

For `CCC1=C[C@H]2CN(CCc3c([nH]c4ccccc34)[C@@](C(=O)OC)(c3cc4c(cc3OC)N(C)[C@H]3[C@@](O)(C(=O)OC)[C@H](OC(C)=O)[C@]5(CC)C=CCN6CC[C@]43[C@@H]65)C2)C1` [AHVB, 3′,4′-anhydrovinblastine], the “pharmacokinetics, dose linearity” value ([1]; 2.5-30 mg/m^2, 1 hour infusion) was “linear”, the T1/2 al ([1]; All Data, N 20, Max) was 0.393 h and the T1/2 be ([1]; All Data, N 20, Max) was 63.10 h. The “T1/2 al (alpha half-life)” value ([1]; All Data, N 20, Mean) was 0.19 h, the “T1/2 be (beta half-life)” value ([1]; All Data, N 20, Mean) was 20.8 h and the T1/2 al ([1]; All Data, N 20, Median) was 0.17 h. The T1/2 be ([1]; All Data, N 20, Median) was 17.60 h, the T1/2 al ([1]; All Data, N 20, Min) was 0.07 h and the T1/2 be ([1]; All Data, N 20, Min) was 6.63 h. It also gave an A ([1]; dose 2.5 mg/m^2, N 1, Value) of 134.71 ng/mL, an AUC ([1]; dose 2.5 mg/m^2, N 1, Value) of 71.64 and a B ([1]; dose 2.5 mg/m^2, N 1, Value) of 5.03 ng/mL. The Cmax ([1]; dose 2.5 mg/m^2, N 1, Value) was 28.23 ng/mL, the T1/2 al ([1]; dose 2.5 mg/m^2, N 1, Value) was 0.12 h and the T1/2 be ([1]; dose 2.5 mg/m^2, N 1, Value) was 6.63 h. The A ([1]; dose 5 mg/m^2, N 3, Max) was 531.52 ng/mL, the AUC ([1]; dose 5 mg/m^2, N 3, Max) was 793.39 and the B ([1]; dose 5 mg/m^2, N 3, Max) was 9.73 ng/mL. The Cmax ([1]; dose 5 mg/m^2, N 3, Max) was 62.40 ng/mL, the T1/2 al ([1]; dose 5 mg/m^2, N 3, Max) was 0.17 h and the T1/2 be ([1]; dose 5 mg/m^2, N 3, Max) was 63.13 h. For the same compound, the A ([1]; dose 5 mg/m^2, N 3, Mean) was 281.82 ng/mL, the AUC ([1]; dose 5 mg/m^2, N 3, Mean) was 571.75 and the B ([1]; dose 5 mg/m^2, N 3, Mean) was 8.04 ng/mL. The Cmax ([1]; dose 5 mg/m^2, N 3, Mean) was 51.37 ng/mL, the T1/2 al ([1]; dose 5 mg/m^2, N 3, Mean) was 0.14 h and the T1/2 be ([1]; dose 5 mg/m^2, N 3, Mean) was 44.36 h. The A ([1]; dose 5 mg/m^2, N 3, Median) was 178.39 ng/mL, the AUC ([1]; dose 5 mg/m^2, N 3, Median) was 639.67 and the B ([1]; dose 5 mg/m^2, N 3, Median) was 8.11 ng/mL. For the same compound, the Cmax ([1]; dose 5 mg/m^2, N 3, Median) was 53.07 ng/mL, the T1/2 al ([1]; dose 5 mg/m^2, N 3, Median) was 0.17 h and the T1/2 be ([1]; dose 5 mg/m^2, N 3, Median) was 42.41 h. The A ([1]; dose 5 mg/m^2, N 3, Min) was 135.55 ng/mL, the AUC ([1]; dose 5 mg/m^2, N 3, Min) was 282.20 and the B ([1]; dose 5 mg/m^2, N 3, Min) was 6.27 ng/mL. The Cmax ([1]; dose 5 mg/m^2, N 3, Min) was 38.65 ng/mL, the T1/2 al ([1]; dose 5 mg/m^2, N 3, Min) was 0.07 h and the T1/2 be ([1]; dose 5 mg/m^2, N 3, Min) was 27.54 h. For the same compound, the A ([1]; dose 10 mg/m^2, N 1, Value) was 109.85 ng/mL, the AUC ([1]; dose 10 mg/m^2, N 1, Value) was 247.19 and the B ([1]; dose 10 mg/m^2, N 1, Value) was 11.49 ng/mL. For the same compound, the Cmax ([1]; dose 10 mg/m^2, N 1, Value) was 48.57 ng/mL, the T1/2 al ([1]; dose 10 mg/m^2, N 1, Value) was 0.25 h and the T1/2 be ([1]; dose 10 mg/m^2, N 1, Value) was 12.50 h. The A ([1]; dose 16.5 mg/m^2, N 5, Max) was 816.42 ng/mL, the AUC ([1]; dose 16.5 mg/m^2, N 5, Max) was 1791.22 and the B ([1]; dose 16.5 mg/m^2, N 5, Max) was 34.16 ng/mL. For the same compound, the Cmax ([1]; dose 16.5 mg/m^2, N 5, Max) was 231.52 ng/mL, the T1/2 al ([1]; dose 16.5 mg/m^2, N 5, Max) was 0.39 h and the T1/2 be ([1]; dose 16.5 mg/m^2, N 5, Max) was 33.52 h. It also gave an A ([1]; dose 16.5 mg/m^2, N 5, Mean) of 509.47 ng/mL, an AUC ([1]; dose 16.5 mg/m^2, N 5, Mean) of 824.58 and a B ([1]; dose 16.5 mg/m^2, N 5, Mean) of 22.50 ng/mL. It also gave a Cmax ([1]; dose 16.5 mg/m^2, N 5, Mean) of 163.03 ng/mL, a T1/2 al ([1]; dose 16.5 mg/m^2, N 5, Mean) of 0.22 h and a T1/2 be ([1]; dose 16.5 mg/m^2, N 5, Mean) of 21.35 h. It also gave an A ([1]; dose 16.5 mg/m^2, N 5, Median) of 478.82 ng/mL, an AUC ([1]; dose 16.5 mg/m^2, N 5, Median) of 541.21 and a B ([1]; dose 16.5 mg/m^2, N 5, Median) of 21.87 ng/mL. The Cmax ([1]; dose 16.5 mg/m^2, N 5, Median) was 171.48 ng/mL, the T1/2 al ([1]; dose 16.5 mg/m^2, N 5, Median) was 0.20 h and the T1/2 be ([1]; dose 16.5 mg/m^2, N 5, Median) was 21.82 h. For the same compound, the A ([1]; dose 16.5 mg/m^2, N 5, Min) was 263.49 ng/mL, the AUC ([1]; dose 16.5 mg/m^2, N 5, Min) was 511.26 and the B ([1]; dose 16.5 mg/m^2, N 5, Min) was 6.64 ng/mL. The Cmax ([1]; dose 16.5 mg/m^2, N 5, Min) was 96.35 ng/mL, the T1/2 al ([1]; dose 16.5 mg/m^2, N 5, Min) was 0.13 h and the T1/2 be ([1]; dose 16.5 mg/m^2, N 5, Min) was 8.21 h. The A ([1]; dose 21 mg/m^2, N 3, Max) was 1197.78 ng/mL, the AUC ([1]; dose 21 mg/m^2, N 3, Max) was 1402.11 and the B ([1]; dose 21 mg/m^2, N 3, Max) was 28.54 ng/mL. The Cmax ([1]; dose 21 mg/m^2, N 3, Max) was 340.46 ng/mL, the T1/2 al ([1]; dose 21 mg/m^2, N 3, Max) was 0.39 h and the T1/2 be ([1]; dose 21 mg/m^2, N 3, Max) was 30.50 h. For the same compound, the A ([1]; dose 21 mg/m^2, N 3, Mean) was 774.37 ng/mL, the AUC ([1]; dose 21 mg/m^2, N 3, Mean) was 1094.91 and the B ([1]; dose 21 mg/m^2, N 3, Mean) was 25.92 ng/mL. It also gave a Cmax ([1]; dose 21 mg/m^2, N 3, Mean) of 257.21 ng/mL, a T1/2 al ([1]; dose 21 mg/m^2, N 3, Mean) of 0.26 h and a T1/2 be ([1]; dose 21 mg/m^2, N 3, Mean) of 22.88 h. For the same compound, the A ([1]; dose 21 mg/m^2, N 3, Median) was 802.43 ng/mL, the AUC ([1]; dose 21 mg/m^2, N 3, Median) was 964.03 and the B ([1]; dose 21 mg/m^2, N 3, Median) was 24.72 ng/mL. It also gave a Cmax ([1]; dose 21 mg/m^2, N 3, Median) of 252.10 ng/mL, a T1/2 al ([1]; dose 21 mg/m^2, N 3, Median) of 0.20 h and a T1/2 be ([1]; dose 21 mg/m^2, N 3, Median) of 19.15 h. The A ([1]; dose 21 mg/m^2, N 3, Min) was 322.90 ng/mL, the AUC ([1]; dose 21 mg/m^2, N 3, Min) was 918.58 and the B ([1]; dose 21 mg/m^2, N 3, Min) was 24.50 ng/mL. For the same compound, the Cmax ([1]; dose 21 mg/m^2, N 3, Min) was 179.07 ng/mL, the T1/2 al ([1]; dose 21 mg/m^2, N 3, Min) was 0.19 h and the T1/2 be ([1]; dose 21 mg/m^2, N 3, Min) was 19.00 h. For the same compound, the A ([1]; dose 25 mg/m^2, N 6, Max) was 1952.78 ng/mL, the AUC ([1]; dose 25 mg/m^2, N 6, Max) was 1202.01 and the B ([1]; dose 25 mg/m^2, N 6, Max) was 48.76 ng/mL. For the same compound, the Cmax ([1]; dose 25 mg/m^2, N 6, Max) was 368.79 ng/mL, the T1/2 al ([1]; dose 25 mg/m^2, N 6, Max) was 0.36 h and the T1/2 be ([1]; dose 25 mg/m^2, N 6, Max) was 16.29 h. It also gave an A ([1]; dose 25 mg/m^2, N 6, Mean) of 1122.91 ng/mL, an AUC ([1]; dose 25 mg/m^2, N 6, Mean) of 764.83 and a B ([1]; dose 25 mg/m^2, N 6, Mean) of 34.51 ng/mL. For the same compound, the Cmax ([1]; dose 25 mg/m^2, N 6, Mean) was 273.43 ng/mL, the T1/2 al ([1]; dose 25 mg/m^2, N 6, Mean) was 0.18 h and the T1/2 be ([1]; dose 25 mg/m^2, N 6, Mean) was 10.68 h. It also gave an A ([1]; dose 25 mg/m^2, N 6, Median) of 1062.6 ng/mL, an AUC ([1]; dose 25 mg/m^2, N 6, Median) of 750.85 and a B ([1]; dose 25 mg/m^2, N 6, Median) of 35.06 ng/mL. The Cmax ([1]; dose 25 mg/m^2, N 6, Median) was 287.71 ng/mL, the T1/2 al ([1]; dose 25 mg/m^2, N 6, Median) was 0.16 h and the T1/2 be ([1]; dose 25 mg/m^2, N 6, Median) was 10.54 h. The A ([1]; dose 25 mg/m^2, N 6, Min) was 379.79 ng/mL, the AUC ([1]; dose 25 mg/m^2, N 6, Min) was 436.85 and the B ([1]; dose 25 mg/m^2, N 6, Min) was 20.78 ng/mL. It also gave a Cmax ([1]; dose 25 mg/m^2, N 6, Min) of 108.52 ng/mL, a T1/2 al ([1]; dose 25 mg/m^2, N 6, Min) of 0.11 h and a T1/2 be ([1]; dose 25 mg/m^2, N 6, Min) of 6.73 h. For the same compound, the A ([1]; dose 30 mg/m^2, N 1, Value) was 3559.02 ng/mL, the AUC ([1]; dose 30 mg/m^2, N 1, Value) was 1797.92 and the B ([1]; dose 30 mg/m^2, N 1, Value) was 36.71 ng/mL. It also gave a Cmax ([1]; dose 30 mg/m^2, N 1, Value) of 571.08 ng/mL, a T1/2 al ([1]; dose 30 mg/m^2, N 1, Value) of 0.10 h and a T1/2 be ([1]; dose 30 mg/m^2, N 1, Value) of 23.83 h. The toxicities [2] was “reversible myelosupression and gastrointestinal toxicities”.
